Laboratory results taken from patent US10709704B2, “Treating neural disease with tyrosine kinase inhibitors” (GEORGETOWN UNIVERSITY, priority 2012, dated 2020).

Legend:
[1] = tested on: molecular markers of autophagy; assay: Western blot of autophagy markers, lentiviral α-Synuclein mice; type: in vivo, mouse; conditions: Nilotinib 10 mg/kg IP daily 3 weeks
Source text: Rabbit polyclonal (1:1000) tubulin (Thermo Scientific) was used.

[2] = tested on: SN Tyrosine hydroxylase (TH) neurons; assay: TH neuron stereology and electron microscopy of SN, lentiviral α-Synuclein mice; type: in vivo, mouse
Method: Animals were deeply anesthetized with a mixture of Xylazine and Ketamine (1:8), washed with 1× saline for 1 min and then perfused with 4% paraformaldehyde (PFA) for 15-20 min. Brains were quickly dissected out and immediately stored in 4% PFA for 24 h at […], and then transferred to 30% sucrose at […] for 48 h. Tyrosine Hydroxylase (TH) was probed (1:100) with rabbit polyclonal (AB152) antibody (Millipore) and human α-Synuclein was probed (1:100) with mouse monoclonal antibodies (Thermo Scientific) and DAB counterstained.
These were applied by a blinded investigator using unbiased stereology analysis (Stereologer, Systems Planning and Analysis, Chester, Md.) to determine the total positive cell counts in 20 cortical fields on at least 10 brain sections (˜400 positive cells per animal) from each animal.
Brain tissues are fixed in (1:4, v:v) 4% PFA-picric acid solution and […] overnight, then washed 3× in 0.1 M cacodylate buffer and osmicated in 1% osmium tetroxide/1.5% potassium ferrocyanide for 3 h, followed by another 3× wash in distilled water. […] Blocks are sectioned on a Leica ultracut microtome at 95 nm, picked up onto […] formvar-coated copper grids and analyzed using a Philips Technai Spirit transmission EM. […]

[3] = tested on: human M17 neuroblastoma cells; assay: MTT cell viability, M17 cells transfected with Aβ1-42 or LacZ; type: cell-based; conditions: Nilotinib 24 hr
Method: Human neuroblastoma M17 or rat B35 cells were grown in 24 well dishes (Falcon). Transient transfection was performed with 3 μg Aβ1-42 cDNA, or 3 μg LacZ cDNA for 24 hr. […] Cells were harvested 48 hr after transfection.
Parkin levels were measured via ELISA using parkin−/− brain extracts as a specificity control (FIG. 66A).

[4] = tested on: parkin and molecular markers of autophagy; assay: Parkin and autophagy markers (WB, ELISA), lentiviral Aβ1-42 wild type mice; type: in vivo, mouse
Tg-APP mice = assay: Novel object recognition, Tg-APP mice; type: in vivo, mouse; conditions: Tg-APP+Nilotinib
Method: Mice were placed individually in a 22×32×30 cm testing chamber for a 5 min habituation interval and returned to their home cages. Thirty minutes later mice were placed in the testing chamber for 10 min with two identical objects (acquisition session), then returned to their home cages and […] placed back in the testing chamber in the presence with one of the original objects and one novel object of the same size but of a different color and shape (recognition session). Sessions were video recorded. Time spent exploring the objects were scored by blind observer. The recognition index was calculated as (time exploring one of the objects/time exploring both objects)×100 for acquisition session, and (time exploring new object/time exploring both familiar and novel objects)×100 for the recognition session. Statistical calculations to estimate differences between sessions were performed with a pairwise t-test.
These experiments were repeated in 1 year old Tg-APP mice and age-matched control (C57BL/6).

[5] = tested on: autophagic vacuoles and lysosomes; assay: Subcellular fractionation and ELISA, lentiviral Aβ1-42 mice; type: in vivo, mouse
Method: Histograms show Aβ1-42 in subcellular fractions, including autophagic vacuole-10 (AV-10; phagophores+autophagosomes), AV-20 (autophagosomes) and lysosomes. […] Brain tissues were fractionated to isolate AVs and human specific ELISA was performed to determine protein contents. […] N=5 animals per treatment.
(§1) Brain tissues were fractionated to isolate AVs and human specific ELISA was performed to determine protein contents.
(§2) 0.5 g of Frozen human or animal brains were homogenized at low speed (Cole-Palmer homogenizer, LabGen 7, 115 Vac) in 1×STEN buffer and centrifuged at 1,000 g for 10 minutes to isolate the supernatant from the pellet. The pellet was re-suspended in 1×STEN buffer and centrifuged once to increase the recovery of lysosomes. The pooled supernatants were then centrifuged at 100,000 rpm for 1 hour at 4° C. to extract the pellet containing autophagic vacuoles (AVs) and lysosomes. The pellet was then re-suspended in 10 ml (0.33 g/ml) 50% Metrizamide and 10 ml in cellulose nitrate tubes. A discontinuous Metrizamide gradient was constructed in layers from bottom to top as follows: 6 ml of pellet suspension, 10 ml of 26%; 5 ml of 24%; 5 ml of 20%; and 5 ml of 10% Metrizamide (Marzella et al., 1982). After centrifugation at 10,000 rpm for 1 hour at 4° C., the fraction floating on the 10% layer (Lysosome) and the fractions banding at the 24%/20% (AV 20) and the 20%/10% (AV10) Metrizamide inter-phases were collected by a syringe and examined.
(§3) Animal brains were homogenized at low speed (Cole-Palmer homogenizer, LabGen 7, 115 Vac) in 1×STEN buffer and centrifuged at 1,000 g for 10 minutes to isolate the supernatant from the pellet. The pellet was re-suspended in 1×STEN buffer and centrifuged once to increase the recovery of lysosomes. The pooled supernatants were then centrifuged at 100.000 rpm for 1 hour at […] to extract the pellet containing autophagic vacuoles (AVs) and lysosomes. The pellet was then re-suspended in 10 ml (0.33 g/ml) 50% Metrizamide and 10 ml in cellulose nitrate tubes. […]

[6] = tested on: autophagic vacuoles and lysosomes; assay: Subcellular fractionation and ELISA, lentiviral Tau±Aβ1-42 mice; type: in vivo, mouse
Method: Brain tissues were fractionated to isolate AVs and human specific ELISA was performed to determine Aβ1-42 contents. […] It was also observed that autophagic clearance is parkin-dependent.
Brain tissues were fractionated to isolate AVs and mouse specific ELISA was performed to determine protein contents.
as §1, §2, §3

[7] = wild type lentiviral Aβ1-42 mice, Nilotinib vs DMSO
[8] = lentiviral Aβ1-42 mice, IP 10 mg/kg Nilotinib or 5 mg/Kg Bosutinib daily 3 weeks

Cc1cn(-c2cc(NC(=O)c3ccc(C)c(Nc4nccc(-c5cccnc5)n4)c3)cc(C(F)(F)F)c2)cn1 [Nilotinib]
decrease in LC3-II compared to LC3-I [1]: 39%
decrease in LC3-II compared to MAP-2 [1]: 41%
decrease in P62 [1]: 69%
increase in Atg-5 compared to actin [1]: 43%
increase in Atg-12 compared to actin [1]: 58%
increase in beclin-1 compared to actin [1]: 62%
TH+ neurons (by stereology) ([2]; lentiviral α-Synuclein mice + Nilotinib): 82 % of LacZ level
autophagic vacuoles in SN neurons (transmission electron microscopy) ([2]; lentiviral α-Synuclein mice, Nilotinib treatment): appearance of larger AVs
cell viability (MTT) after Aβ1-42 induced cell death ([3]; Aβ1-42 expressing cells): 83 % of control level
cell death (by MTT) ([3]; LacZ cells): No cell death
LC3-II [4, 7]: disappearance
decrease in LC3-B [4, 7]: 38%
parkin level (ELISA) ([4]; wild type mice and lentiviral Aβ1-42 ± Nilotinib): increases parkin level
better performance at finding new objects than DMSO mice (Tg-APP mice): 31%
autophagic clearance of Aβ1-42 (deposition in AV-20 and lysosome) [5, 8]: enhances autophagic clearance
autophagic clearance of p-Tau ser 396 (deposition in AV-20 and lysosome) [5, 8]: enhances autophagic clearance
autophagic clearance of Aβ1-42 (deposition in AV-20 and lysosomes) ([5]; wild type or Tau−/− mice, lentiviral Aβ1-42, 10 mg/kg Nilotinib or 5 mg/Kg Bosutinib daily 3 weeks): enhances autophagic clearance
autophagic clearance of p-Tau ser 396, human specific ELISA ([6]; lentiviral Tau±Aβ1-42 mice, 10 mg/kg Nilotinib or 5 mg/Kg Bosutinib daily 3 weeks): enhances autophagic clearance
autophagic clearance of Aβ1-42 (deposition in AV-20 and lysosome) ([6]; lentiviral Tau±Aβ1-42 mice, IP 10 mg/kg Nilotinib daily 3 weeks): enhances autophagic clearance
autophagic clearance of p-Tau ser 396, mouse specific ELISA ([6]; lentiviral human Tau±Aβ1-42 mice, IP 10 mg/kg Nilotinib daily 3 weeks): enhances autophagic clearance
